According to patent US20250057799A1, “Anti-Inflammatory Methods with Compositions Comprising Site-Specific Isotopically-Modified Fatty Acids” (BioJiva LLC, priority 2021, published 2025):
“Also recorded” adds a separate entry of the source.

Tested on: LPS-inflicted lung inflammation
Experiment: LPS-inflicted lung inflammation model in mice (lung morphometry)
Assay type: in vivo
Conditions: for interalveolar septa thickness (result in words) / alveolar lumen area (result in words): 6-week dietary course then single intranasal LPS; for interalveolar septa thickness (result in words): compared with control mice without LPS; for alveolar lumen area (result in words): compared with control mice without LPS / H-form; for Partition thickness Me (25%; 75%): 6-week dietary course followed by single intranasal LPS, median
Description: FIGS. 3-6. Groups of female (f) and male (m) mice received a 6-week course of dietary (H) AA or a 6-week course of deuterated arachidonic acid (D6-ARA, 15 mg/day) followed by single intranasal administration of LPS.
COX and LOX inhibitors can be employed to down-regulate this process, with various efficacy. In contrast, the methods of the present disclosure rely on deuteration of the three oxidation prone sites within PUFA molecules, to substantially slow down the rate limiting step of oxidation (both enzymatic and non-enzymatic) via the isotope effect (IE). Made in high yield via a catalytic process, such D-PUFAs were tested in a lipopolysaccharide (LPS)-inflicted lung inflammation model in mice, a well-known lung inflammation model. (See Example 1.)
For example, the mouse LPS model has been used as a model for human acute lung injury (ALI), as the mouse lung parenchyma is damaged by the generation and release of proteases and reactive oxygen and nitrogen species produced by activated lung macrophages and transmigrated neutrophils in the interstitial and alveolar compartments. The end results are microvascular injury and diffuse alveolar damage with intrapulmonary hemorrhage, edema, and fibrin deposition (Johnson and Ward, J. Clin. Invest., (1974), 54:349-357; Flierl et al., Med. Hypothesis Res., (2006), 3:727,738), which are also features in patients with ALI and the acute respiratory distress syndrome (ARDS) (Kabir et al., Shock, (2002), 17:300-303; Ward, Am. J. Pathol., (1996), 149:1081-1086). This LPS model recapitulates aspects of the inflammatory cascades that are associated with pulmonary inflammation associated with lung disease in humans, and so is useful as a screen for compounds that may disrupt these cascades and attenuate or abort the disease process. As discussed herein, in some embodiments, the D-PUFAs of the present disclosure are administered to break the inflammatory cascade of specific cytokines and chemokines known to induce and amplify lung inflammation. Thus, for example, one can experimentally assess the efficacy of the D-PUFAs by examining whether the levels of inflammation associated markers are reduced. Two such markers, monocyte chemoattractant protein (MCP-1), and tumor necrosis factor alpha (TNF-a), are found to be associated with early and chronic infection and inflammation in humans and are mirrored in rodent models of airway inflammation including the mouse LPS pulmonary inflammation model.
LPS treatment promotes inflammation through various mechanisms including secretion of pro-inflammatory cytokines, eicosanoids and induction of ROS. Following induction by the intranasal administration of LPS, an acute lung inflammation quickly follows. […] Such a pronounced inflammatory infiltration of the interalveolar septa contributed to their destruction and more frequent formation of emphysema foci in this group. […] (See FIGS. 3-6.)
The degree of alveolar lumen area changes in both groups of animals depended on gender.

| SMILES | interalveolar septa thickness (result in words) | alveolar lumen area (result in words) | alveolar lumen area (result in words) (listed as D-form) | degree of inflammatory lesion of the lungs (D-form compared to H-form, after 6-week course and LPS) | Partition thickness Me (25%; 75%) (females) | Partition thickness Me (25%; 75%) (males) | protective / therapeutic effect compared to other deuterated PUFAs (preliminary data (not shown)) | interalveolar septa thickness (result in words) (listed as AA) |
| --- | --- | --- | --- | --- | --- | --- | --- | --- |
| [2H]C([2H])(/C=C\CCCCC)/C=C\C([2H])([2H])/C=C\C([2H])([2H])/C=C\CCCC(=O)O [D-ara, 7,7,10,10,13,13-D6-arachidonic acid] | consistent with controls | consistent with controls | decrease in alveoli lumens | lesser degree of inflammatory lesion | 3.6 μm | 5.55 μm | better therapeutic effect; also recorded: best protective effect | – |
| CCCCC/C=C\C/C=C\C/C=C\C/C=C\CCCC(=O)O [H-ara, arachidonic acid, reference compound] | significantly increased | increase | – | – | 9.1 μm | – | – | increase |
